# Results from patent US11173162B2, “Bicyclic heterocycles as FGFR4 inhibitors” (Incyte Corporation, priority 2015, dated 2021).
# Key:
# FGFR3 enzyme = experiment: FGFR Enzymatic Assay (FRET peptide phosphorylation), FGFR3; format: biochemical; settings: IC50 ratio showing FGFR3 selectivity; Table 2A, pre-incubated for 4 hours
# Experimental: (§1) The inhibitor potency of the exemplified compounds was measured in an enzyme assay that measures peptide phosphorylation using FRET measurements to detect product formation. Inhibitors were serially diluted in DMSO and a volume of 0.5 μL was transferred to the wells of a 384-well plate.
# (§2) GraphPad prism3 was used to analyze the data.
# FGFR4 = FGFR4 (Homo sapiens (Human), UniProt P22455); experiment: FGFR Enzymatic Assay (FRET peptide phosphorylation), FGFR4; format: biochemical
# Experimental: as §1
# The enzymes were purchased from Millipore or Invitrogen.
# as §2
# [1] = IC50 ratio showing FGFR4 selectivity, Table 2, pre-incubated for 4 hours
# [2] = ratio of IC50 data showing FGFR4 selectivity, Table 4, pre-incubated for 5 to 10 minutes
# Chain of FGFR4 (P22455 22-802): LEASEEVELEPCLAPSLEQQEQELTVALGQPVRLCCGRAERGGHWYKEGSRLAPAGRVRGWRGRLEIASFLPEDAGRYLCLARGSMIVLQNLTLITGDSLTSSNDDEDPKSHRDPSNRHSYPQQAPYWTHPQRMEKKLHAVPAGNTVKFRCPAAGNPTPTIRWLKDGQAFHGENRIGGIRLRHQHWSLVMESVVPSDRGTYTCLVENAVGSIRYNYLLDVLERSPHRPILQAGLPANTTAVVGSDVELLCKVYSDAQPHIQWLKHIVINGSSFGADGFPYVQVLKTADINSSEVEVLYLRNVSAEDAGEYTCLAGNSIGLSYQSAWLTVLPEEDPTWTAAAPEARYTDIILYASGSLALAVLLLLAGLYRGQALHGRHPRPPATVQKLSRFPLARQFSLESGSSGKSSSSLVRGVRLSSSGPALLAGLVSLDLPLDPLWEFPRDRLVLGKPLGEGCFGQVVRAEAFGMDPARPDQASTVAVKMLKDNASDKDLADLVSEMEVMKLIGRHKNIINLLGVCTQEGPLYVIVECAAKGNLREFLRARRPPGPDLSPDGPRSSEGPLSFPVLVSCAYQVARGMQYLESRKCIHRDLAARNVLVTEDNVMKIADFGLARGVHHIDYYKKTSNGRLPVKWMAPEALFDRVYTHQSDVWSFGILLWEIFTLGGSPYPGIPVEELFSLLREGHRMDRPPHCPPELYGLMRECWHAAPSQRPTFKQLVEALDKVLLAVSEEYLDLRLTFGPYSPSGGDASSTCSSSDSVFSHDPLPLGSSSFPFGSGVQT
Compound,FGFR1/FGFR4 (FGFR4; [1]),FGFR2/FGFR4 (FGFR4; [1]),FGFR3/FGFR4 (FGFR4; [1]),FGFR1/FGFR3 (FGFR3 enzyme),FGFR1/FGFR4 (FGFR4; [2]),FGFR2/FGFR4 (FGFR4; [2]),FGFR3/FGFR4 (FGFR4; [2])
"COc1cc(OC)c(F)c(N2Cc3cnc(-c4cncc(NS(C)(=O)=O)c4)cc3C3(CC3)C2=O)c1F [Example 15, N-(5-(2′-(2,6-difluoro-3,5-dimethoxyphenyl)-3′-oxo-2′,3′-dihydro-1′H-spiro[cyclopropane-1,4′-[2,7]naphthyridine]-6′-yl)pyridin-3-yl)methanesulfonamide]",>50,>25,>10,>3,>50,>25,>10
"COc1cc(OC)c(F)c(N2Cc3cnc(-c4cncc(CN5CCOCC5)c4)cc3C3(CC3)C2=O)c1F [Example 16, 2′-(2,6-difluoro-3,5-dimethoxyphenyl)-6′-(5-(morpholinomethyl)pyridin-3-yl)-1′H-spiro[cyclopropane-1,4′-[2,7]naphthyridin]-3′(2′H)-one]",>50,>25,>10,>1,>25,>10,>10
"COc1cc(OC)c(F)c(N2Cc3cnc(-c4cncc(S(=O)(=O)N5CCOCC5)c4)cc3C3(CC3)C2=O)c1F [Example 14, 2′-(2,6-difluoro-3,5-dimethoxyphenyl)-6′-(5-(morpholinosulfonyl)pyridin-3-yl)-1′H-spiro[cyclopropane-1,4′-[2,7]naphthyridin]-3′(2′H)-one]",>50,>10,>1,>5,>25,>5,>5
"COc1cc(OC)c(F)c(N2Cc3cnc(-c4cncc(N)c4)cc3C3(CC3)C2=O)c1F [Example 4, 6′-(5-aminopyridin-3-yl)-2′-(2,6-difluoro-3,5-dimethoxyphenyl)-1′H-spiro[cyclopropane-1,4′-[2,7]naphthyridin]-3′(2′H)-one]",>25,>10,>10,>1,>10,>10,>5
"COc1cc(OC)c(F)c(N2Cc3cnc(-c4nn(CC5CCOCC5)cc4C#N)cc3C3(CC3)C2=O)c1F [Example 173, 3-(2′-(2,6-difluoro-3,5-dimethoxyphenyl)-3′-oxo-2′,3′-dihydro-1′H-spiro[cyclopropane-1,4′-[2,7]naphthyridine]-6′-yl)-1-((tetrahydro-2H-pyran-4-yl)methyl)-1H-pyrazole-4-carbonitrile]",>100,>100,>50,–,–,–,–
"COc1cc(OC)c(F)c(N2Cc3cnc(-c4cncc(Cl)c4)cc3C3(CC3)C2=O)c1F [Example 11, 6′-(5-chloropyridin-3-yl)-2′-(2,6-difluoro-3,5-dimethoxyphenyl)-1′H-spiro[cyclopropane-1,4′-[2,7]naphthyridin]-3′(2′H)-one]",>25,>25,>10,>1,>50,>20,>25
"COc1cncc(-c2cc3c(cn2)CN(c2c(F)c(OC)cc(OC)c2F)C(=O)C32CC2)c1 [Example 10, 2′-(2,6-difluoro-3,5-dimethoxyphenyl)-6′-(5-methoxypyridin-3-yl)-1′H-spiro[cyclopropane-1,4′-[2,7]naphthyridin]-3′(2′H)-one]",>25,>25,>10,>1,>25,>10,>10
"COc1cc(OC)c(F)c(N2Cc3cnc(-c4cncc(C(=O)N5CCOCC5)c4)cc3C3(CC3)C2=O)c1F [Example 13, 2′-(2,6-difluoro-3,5-dimethoxyphenyl)-6′-(5-(morpholine-4-carbonyl)pyridin-3-yl)-1′H-spiro[cyclopropane-1,4′-[2,7]naphthyridin]-3′(2′H)-one]",>50,>25,>10,>3,>50,>20,>10
"COc1cc(OC)c(F)c(N2Cc3cnc(-c4cncc(F)c4)cc3C3(CC3)C2=O)c1F [Example 5, 2′-(2,6-difluoro-3,5-dimethoxyphenyl)-6′-(5-fluoropyridin-3-yl)-1′H-spiro[cyclopropane-1,4′-[2,7]naphthyridin]-3′(2′H)-one]",>10,>5,>1,>3,>10,>5,>4
"COc1cc(OC)c(F)c(N2Cc3cnc(-c4cncc(-n5ccnc5)c4)cc3C3(CC3)C2=O)c1F [Example 12, 6′-(5-(1H-imidazol-1-yl)pyridin-3-yl)-2′-(2,6-difluoro-3,5-dimethoxyphenyl)-1′H-spiro[cyclopropane-1,4′-[2,7]naphthyridin]-3′(2′H)-one]",>50,>25,>10,>3,>50,>25,>20

# Now from value to compound, other results behind:
FGFR1/FGFR4 (FGFR4; [1]),FGFR2/FGFR4 (FGFR4; [1]),FGFR3/FGFR4 (FGFR4; [1]),Compound,FGFR1/FGFR3 (FGFR3 enzyme),FGFR1/FGFR4 (FGFR4; [2]),FGFR2/FGFR4 (FGFR4; [2]),FGFR3/FGFR4 (FGFR4; [2])
>10,>1,>1,"COc1cc(OC)c(F)c(N2Cc3cnc(-c4cccnc4)cc3C3(CC3)C2=O)c1F [Example 9, 2′-(2,6-difluoro-3,5-dimethoxyphenyl)-6′-(pyridin-3-yl)-1′H-spiro[cyclopropane-1,4′-[2,7]naphthyridin]-3′(2′H)-one]",>3,>5,>1,>1
>50,>25,>25,"COc1cc(OC)c(F)c(N2Cc3cnc(-c4cc(N)cnc4C)cc3C3(CC3)C2=O)c1F [Example 7, 6′-(5-amino-2-methylpyridin-3-yl)-2′-(2,6-difluoro-3,5-dimethoxyphenyl)-1′H-spiro[cyclopropane-1,4′-[2,7]naphthyridin]-3′(2′H)-one]",>1,>25,>10,>10
>100,>10,>25,"COc1cc(OC)c(F)c(N2Cc3cnc(-c4nn(CC#N)cc4C#N)cc3C3(CC3)C2=O)c1F [Example 174, 1-(cyanomethyl)-3-(2′-(2,6-difluoro-3,5-dimethoxyphenyl)-3′-oxo-2′,3′-dihydro-1′H-spiro[cyclopropane-1,4′-[2,7]naphthyridine]-6′-yl)-1H-pyrazole-4-carbonitrile]",–,–,–,–
>10,>10,>10,"COc1cc(OC)c(F)c(N2Cc3cnc(-c4cc(N)c(F)cc4C)cc3C3(CC3)C2=O)c1F [Example 2, 6′-(5-amino-4-fluoro-2-methylphenyl)-2′-(2,6-difluoro-3,5-dimethoxyphenyl)-1′H-spiro[cyclopropane-1,4′-[2,7]naphthyridin]-3′(2′H)-one]",–,>10,>10,>10
>50,>10,>10,"COc1cc(OC)c(F)c(N2Cc3cnc(-c4cncc(C#N)c4)cc3C3(CC3)C2=O)c1F [Example 8, 5-(2′-(2,6-difluoro-3,5-dimethoxyphenyl)-3′-oxo-2′,3′-dihydro-1′H-spiro[cyclopropane-1,4′-[2,7]naphthyridine]-6′-yl)nicotinonitrile]",>5,>50,>10,>10
>25,>25,>10,"COc1cc(OC)c(F)c(N2Cc3cnc(-c4cc(N)ccc4C#N)cc3C3(CC3)C2=O)c1F [Example 3, 4-amino-2-(2′-(2,6-difluoro-3,5-dimethoxyphenyl)-3′-oxo-2′,3′-dihydro-1′H-spiro[cyclopropane-1,4′-[2,7]naphthyridine]-6′-yl)benzonitrile]",–,>25,>25,>25
>10,>10,>10,"COc1cc(OC)c(F)c(N2Cc3cnc(-c4[nH]ncc4C#N)cc3C3(CC3)C2=O)c1F [Example 171, 5-(2′-(2,6-difluoro-3,5-dimethoxyphenyl)-3′-oxo-2′,3′-dihydro-1′H-spiro[cyclopropane-1,4′-[2,7]naphthyridine]-6′-yl)-1H-pyrazole-4-carbonitrile]",–,–,–,–
>100,>100,>25,"COc1cc(OC)c(F)c(N2Cc3cnc(-c4cncc(N5CCOCC5)c4)cc3C3(CC3)C2=O)c1F [Example 6, 2′-(2,6-difluoro-3,5-dimethoxyphenyl)-6′-(5-morpholinopyridin-3-yl)-1′H-spiro[cyclopropane-1,4′-[2,7]naphthyridin]-3′(2′H)-one]",>3,>100,>100,>50
